Results from patent US12497666B2, “Nucleic acid biomarker and use thereof” (Daiichi Sankyo Co., Ltd., priority 2013, dated 2025).

Assays:
Sum225 = test: Xenograft tumor growth inhibition by U3-1287, Sum225; format: in vivo; details: Sum225 xenograft in mice, BC FISH + ve; tumor volumes vs control mice
Procedure: (§1) The HRG biomarker was identified by analysing the anti-tumor activity of the anti-HER3 antibody U3-1287 on various human cancer xenografts in vivo and analysis of the expression of HRG of these cell lines in vitro. Human tumor cell lines of various indications were grown as xenografts in mice and treated with the […] antibody U3-1287 for several weeks. Inhibition of tumor growth was analysed by comparing the tumor volumes of control mice and mice treated with U3-1287. Human tumor cell lines were grown in vitro and analysed for HRG RNA expression by PCR.

HCC 1569 = test: Xenograft tumor growth inhibition by U3-1287, HCC 1569; format: in vivo; details: HCC 1569 xenograft in mice, BC FISH + ve; tumor volumes vs control mice
Procedure: as §1

A375 = test: Xenograft tumor growth inhibition by U3-1287, A375; format: in vivo; details: A375 xenograft in mice, Melanoma; tumor volumes vs control mice
Procedure: as §1

BT474 [1] = test: HER3 phosphorylation by Western blot, BT474; format: cell-based, human
Source text: FIG. 15 depicts Western blots showing that U3-1287 can block […] basal HER3 phosphorylation.

CaOV3 = test: Reduction of phospho-HER3 and phospho-AKT levels by Western blotting, CaOV3; format: cell-based, human; details: CaOV3, no basal HER3 activation, stimulated with exogenous heregulin
Procedure: (§2) FIG. 14 depicts efficacy determined in vitro by measuring reduction of phospho-HER3 and phospho-AKT levels by Western blotting.
(§3) U3-1287 efficacy was determined in vitro by measuring reduction of phospho-HER3 and phospho-AKT levels.

MKN-45 = test: Xenograft tumor growth inhibition by U3-1287, MKN-45; format: in vivo; details: MKN-45 xenograft in mice, Gastric; tumor volumes vs control mice
Procedure: as §1

[2] = Phase 1 monotherapy study of patritumab
Procedure: A higher maintenance dose level of 18 mg/kg was also included to accommodate the possible effect of reduced tumor tissue penetration in the clinical setting relative to animal models.

BT474 [3] = test: Xenograft tumor growth inhibition by U3-1287, BT474; format: in vivo; details: BT474 xenograft in mice, BC FISH + ve; tumor volumes vs control mice
Procedure: as §1

NC-H1975 = test: Xenograft tumor growth inhibition by U3-1287, NC-H1975; format: in vivo; details: NC-H1975 xenograft in mice, NSCLC; tumor volumes vs control mice
Procedure: as §1

HT-29 = test: Xenograft tumor growth inhibition by U3-1287, HT-29; format: in vivo; details: HT-29 xenograft in mice, Colon; tumor volumes vs control mice
Procedure: as §1

MDA-MB453 = test: Xenograft tumor growth inhibition by U3-1287, MDA-MB453; format: in vivo; details: MDA-MB453 xenograft in mice, BC FISH + ve; tumor volumes vs control mice
Procedure: as §1

HT-144 = test: Xenograft tumor growth inhibition by U3-1287, HT-144; format: in vivo; details: HT-144 xenograft in mice, Melanoma; tumor volumes vs control mice
Procedure: as §1

ZR75-1 = test: Xenograft tumor growth inhibition by U3-1287, ZR75-1; format: in vivo; details: ZR75-1 xenograft in mice, BC FISH + ve; tumor volumes vs control mice
Procedure: as §1

A549 [4] = test: Xenograft tumor growth inhibition by U3-1287, A549; format: in vivo; details: A549 xenograft in mice, NSCLC; tumor volumes vs control mice
Procedure: as §1

Calu-3 = test: Xenograft tumor growth inhibition by U3-1287, Calu-3; format: in vivo; details: Calu-3 xenograft in mice, NSCLC; tumor volumes vs control mice
Procedure: as §1

FaDu = test: Xenograft tumor growth inhibition by U3-1287, FaDu; format: in vivo; details: FaDu xenograft in mice, Head&Neck; tumor volumes vs control mice
Procedure: as §1

MCF-7 = test: Xenograft tumor growth inhibition by U3-1287, MCF-7; format: in vivo; details: MCF-7 xenograft in mice, BC FISH + ve; tumor volumes vs control mice
Procedure: as §1

NCI-H441 = test: Xenograft tumor growth inhibition by U3-1287, NCI-H441; format: in vivo; details: NCI-H441 xenograft in mice, NSCLC; tumor volumes vs control mice
Procedure: as §1

BxPC3 = test: Xenograft tumor growth inhibition by U3-1287, BxPC3; format: in vivo; details: BxPC3 xenograft in mice, Pancreas; tumor volumes vs control mice
Procedure: as §1

A549 [5] = test: Reduction of phospho-HER3 and phospho-AKT levels by Western blotting, A549; format: cell-based, human; details: A549, endogenously express heregulin
Procedure: as §2, §3

For “patritumab: anti-HER3 antibody; U3-1287 corresponds to patritumab”, the “In vivo efficacy (SA)” value (Sum225) was “No”, the “In vivo efficacy (SA)” value (HCC 1569) was “No” and the “In vivo efficacy (SA)” value (A375) was “No”. The “efficacy on HER3 phosphorylation” value (BT474 [1]; BT474 HRG: exogenously added heregulin) was “this could be overcome by exogenously added heregulin”, the “efficacy on HER3 phosphorylation” value (BT474 [1]; BT474 basal: basal HER3 phosphorylation, no heregulin expression) was “no efficacy” and the “HER3 phosphorylation (phospho-HER3 and phospho-AKT levels)” value (CaOV3) was “could be blocked”. The “In vivo efficacy (SA)” value (MKN-45) was “Yes”, the maximum tolerated dose ([2]; Phase 1 study) was “not reached” and the dose limiting toxicity ([2]; monotherapy Phase 1 study) was “lack of dose limiting toxicity”. The “In vivo efficacy (SA)” value (BT474 [3]) was “No”, the “In vivo efficacy (SA)” value (NC-H1975) was “Yes” and the “In vivo efficacy (SA)” value (HT-29) was “Yes”. For the same substance, the “In vivo efficacy (SA)” value (MDA-MB453) was “No”, the “In vivo efficacy (SA)” value (HT-144) was “No” and the “In vivo efficacy (SA)” value (ZR75-1) was “No”. The “In vivo efficacy (SA)” value (A549 [4]) was “Yes”, the “In vivo efficacy (SA)” value (Calu-3) was “Yes” and the “In vivo efficacy (SA)” value (FaDu) was “Yes”. The “In vivo efficacy (SA)” value (MCF-7) was “No”, the “In vivo efficacy (SA)” value (NCI-H441) was “No” and the “In vivo efficacy (SA)” value (BxPC3) was “Yes”. The “Basal HER3 phosphorylation (phospho-HER3 and phospho-AKT levels)” value (A549 [5]) was “Basal HER3 phosphorylation could be blocked”.
